Melting point data for 87 compounds are collected here from a melting point compilation (Tetko et al.; mined from patent text by program, amines drawn as free bases though some values may be those of a salt).

Usually melting point stands for the temperature of the solid-liquid transition. `N#Cc1c(Cl)ccc2ccccc12`: the melting point was 82 to 83 °C.

`CC(C)CC(=O)Nc1cccc(-c2ccnc3c(-c4cccc(-c5ccccc5)c4)cnn23)c1` came in with a melting point of 182 to 185 °C.

In the case of `CCc1noc(CC(=O)N(C)c2ccccc2)n1`, the melting point was 53 °C.

The compound `O=c1[nH][nH]c(C(F)(F)F)c1Cc1ccc(F)cc1` returned a melting point of 159 to 160 °C.

`O=C(O)c1ccc(COc2ccc3c(c2)CCC(CCN2CCCCC2)C3)cc1` (configuration not stated) came in with a melting point of 105 to 108 °C.

`Cc1cc(S(=O)(=O)N2c3ccc(Br)cc3-c3ccccc3C2C)ccc1O` (configuration not stated) had a melting point of 193 to 195 °C.

Consider `O=C(Nc1ccccc1)NC(Cc1ccccc1)C(=O)Nc1c(F)cc(F)cc1F` (configuration not stated), for which the melting point is 225 to 233 °C.

As for `O=C(c1cn(-c2cccc(-c3ccccc3)c2)cn1)n1cccn1`, the melting point fell in the range of 124 to 127 °C.

`Cc1ccn(-c2ccc(C(=O)N3Cc4ccnn4Cc4ccccc43)c(Cl)c2)n1` showed a melting point of 187 to 188 °C.

`CCOC(=O)C1(O)c2ccccc2S(=O)(=O)N1Cc1ccc(Br)cc1` (configuration not stated) returned a melting point of 152 to 153 °C.

The compound `CC(C)Cn1c(=O)n(C)c(=O)c2c(Sc3nc(Br)n[nH]3)c(Cc3ccccc3C(F)(F)F)sc21` displayed a melting point of 174 to 175 °C.

With `CCOC(=O)c1ccc(-c2cc3c(N[C@H](C)c4ccccc4)ncnc3[nH]2)cc1`, the melting point lay within 288 to 290 °C.

Regarding `O=C1N[C@H](Cc2cccc(C(F)(F)F)c2)[C@H](c2ccc(F)cc2)O1` (racemic), the melting point was in the range of 177 to 178 °C.

`CCOc1ccc(-c2nc(-c3ccc(OS(=O)(=O)C(F)(F)F)c(C(=O)OC)c3)cs2)cc1OCC` showed a melting point of 112 to 113 °C.

In the case of `COC1(c2cccc(S(=O)(=O)c3ccc4c(c3)C(C)(C)S(=O)(=O)C4(C)C)c2)CCOCC1`, the melting point was found to be 115 °C.

With `O=C(C1CCc2nc[nH]c2C1)N1CCc2ccccc21` (configuration not stated), the melting point lay in the range of 175 to 178 °C.

`CC1(C2CCCC2)Cc2cc(OCCCC(=O)O)c(Cl)c(Cl)c2C1=O` (configuration not stated) yielded a melting point of 154 °C.

The compound `Cc1nn(C)cc1C(=O)Nc1ccc(OCC(C)(C)C)c(C#N)c1` gave a melting point of 193 to 194 °C.

Turning to `CCOc1cc2c(cc1OCC)C(C=Cc1ccc(O)c(OC)c1)=NN=C(C)C2`, the melting point lay in the range of 190 to 191 °C.

In the case of `CCCCc1ccc(NC2=NCCS2)cc1`, the melting point fell in the range of 73 to 75 °C.

As to `CC(=O)Nc1cc(C)nn1C(C)(C)C`, the melting point lay within 118 to 120 °C.

As for `CCCc1cc(-c2noc3cc(O)ccc23)c(CCC)cc1O`, the melting point was 162 to 163 °C.

In turn, `CS(=O)(=O)c1ccc(-c2cnn(-c3cccc(Cl)c3)c(=O)c2C2CCCCC2)cc1` displayed a melting point of 85 to 90 °C.

`CNC(=O)N(C)c1nc(CC(=O)Nc2cccc(C(F)(F)F)c2)cs1` came in with a melting point of 125 to 127 °C.

The compound `FC(F)(F)c1ccc2c(c1)NC(=S)c1ccccc1S2` displayed a melting point of 232 to 233 °C.

On to `CN(CCc1ccc(O)c(O)c1)C(=O)/C=C/c1cccnc1`, for which the melting point fell in the range of 155 to 158 °C.

On to `O=C(c1ccc2ccccc2c1)C(O)O`, for which the melting point lay within 103 to 120 °C.

As for `CCCCC=C(c1ccccc1N1CCCCC1)C(C(N)=O)c1ccc(C(=O)OCC)cc1` (configuration not stated), the melting point fell in the range of 83 to 85 °C.

For `CCCCc1ncc(CCC(=O)O)n1Cc1ccccc1Cl`, the melting point came out at 164 °C.

In turn, `O=S(=O)(Oc1ccc(C(c2ccc(OS(=O)(=O)c3ccccc3)cc2)(C(F)(F)F)C(F)(F)F)cc1)c1ccccc1` displayed a melting point of 133 to 134 °C.

Turning to `Cn1cc(-c2cccc(N3Cc4cc(C5CC5)sc4C3=O)c2CO)cc(Nc2ccncn2)c1=O`, the melting point fell in the range of 140 to 141 °C.

`CCN(C=O)c1nc2ccc(CCc3ccco3)cc2o1` gave a melting point of 54 to 58 °C.

The compound `CCCCOc1nc2cccc(C(=O)OC)c2n1Cc1ccc(-c2ccccc2-c2nnn[nH]2)cc1` displayed a melting point of 146 to 148 °C.

In turn, `COc1ccc(C(c2ccc(OC)cc2)(c2ccc(OC)cc2)N2CCCCC2)cc1` displayed a melting point of 73 to 75 °C.

The compound `Cn1ncnc1COc1nc2c(cc1-c1ccsc1)nnn2-c1c(F)cccc1F` yielded a melting point of 171 to 172 °C.

Consider `CC1(C)CC(O)(C(F)(F)F)C(Nc2cccc3[nH]ncc23)c2ccc(Cl)c(O)c21` (configuration not stated), for which the melting point was in the range of 112 to 120 °C.

With `COC1=CN=C(COC(c2ccccc2)(c2ccccc2)c2ccccc2)CC1=O`, the melting point was 185 to 187 °C.

Take `CCCCc1oc2cc(Br)ccc2c1CC1(c2ccc(OC)cc2)OCN=C1Br` (configuration not stated): the melting point fell in the range of 93 to 95 °C.

As for `Cn1c(=O)c(-c2ccccc2Cl)cc2cnc(N[C@H]3CC[C@H](NS(C)(=O)=O)CC3)nc21`, the melting point was found to be 261 °C.

The compound `Cc1cccc(NC(=O)NC2(C)N=C(N3CCN(C)CC3)c3cccc(C)c3N(C)C2=O)c1` (configuration not stated) displayed a melting point of 136 to 140 °C.

`CC(=O)N[C@@H]1CCCC[C@H]1OCC(=O)O` (relative stereo): the melting point is 141 to 143 °C.

`CC(C(=O)C=Cc1ccc(Cl)cc1)n1cncn1` (configuration not stated) registered a melting point of 115 to 116 °C.

Regarding `Fc1cc(Cl)ccc1/C=C/c1nc(COc2ccc(-c3nc(Cn4ccnc4)co3)cc2)co1`, the melting point fell in the range of 166 to 167 °C.

`CC(C)(C)CC(C)(C)c1cc(-n2nc3ccc(-c4ccc(-c5ccccc5)cc4)cc3n2)c(O)c(C(C)(C)c2ccccc2)c1`: the melting point is 181 to 183 °C.

As to `COc1ccc2ccc3nc(C(N)=O)cn3c2c1`, the melting point fell in the range of 273 to 276 °C.

`CSC(SC)=C(C(O)C(C)(C)C)n1cncn1` (configuration not stated) had a melting point of 108 to 111 °C.

For the compound `CCOC(=O)c1c(N2CCN(C(=O)c3cccs3)CC2)c2cc(F)cnc2n(Cc2cccc(F)c2)c1=O`, the melting point was 113 °C.

`COC(=O)c1nc(Cc2ccccc2)n2c1CN=C(c1ccccc1Cl)c1cc(Cl)ccc1-2` gave a melting point of 155 to 158 °C.

`Nc1cc2c(cc1Oc1ccccc1)C(=O)OC2`: the melting point lay within 205 to 206 °C.

`CCCCc1nn(-c2ccc([N+](=O)[O-])cc2C(F)(F)F)c(=O)n1Cc1ccc(-c2ccccc2S(N)(=O)=O)cc1` gave a melting point of 218 to 220 °C.

`CCOC(=O)c1nc2sc(C(C)C)cc2c(=O)[nH]1`: the melting point fell in the range of 182 to 183 °C.

In the case of `CCOC(=O)C(=CNc1ccccc1)C(=O)c1cc(F)c(Cl)c([N+](=O)[O-])c1Cl`, the melting point lay in the range of 133 to 135 °C.

In turn, `COC(=O)CCc1cc(=O)n2nc(C)nc2[nH]1` returned a melting point of 222 to 225 °C.

Consider `Nc1nc2ccccc2c2c1nc(CCC1CCCC1)n2CCOc1ccccc1`, for which the melting point came to 165 °C.

Regarding `Cc1oc(-c2ccccc2)nc1COc1cccc(CSc2cccc(CCC(=O)O)c2)c1`, the melting point was in the range of 120 to 121 °C.

`O=C(CNC(=O)n1ccnc1)N(c1ccccc1)c1ccccc1` came in with a melting point of 162 °C.

Take `NS(=O)(=O)c1ccc(-c2[nH]c3ccc(Cl)cc3c2-c2ccccc2)cc1`: the melting point lay in the range of 297 to 299 °C.

In turn, `COCCc1nc2c(N)nc3ccccc3c2n1CC(C)(C)CN(C(N)=O)c1ccccc1` displayed a melting point of 125 to 130 °C.

`CC(=O)Nc1cc(O)ccc1Oc1ccccc1` yielded a melting point of 151 to 153 °C.

The compound `CC(C)CCOc1cccc2oc(-c3nnn[nH]3)cc(=O)c12` yielded a melting point of 165 to 166 °C.

As for `NC1=CN(Cc2ccc(Cl)cc2)CN=C1`, the melting point is 128 to 129 °C.

In the case of `CCOC(=O)c1cnc(-c2ccccc2OC(C)C)[nH]c1=O`, the melting point is 123 to 124 °C.

As to `COc1ccc2c(CCNCC#N)c[nH]c2c1`, the melting point was found to be 80 °C.

In turn, `COC(=O)CC(CC(=O)OC)Sc1cc(OC)cc(OC)c1` displayed a melting point of 98 to 99 °C.

`CCOC(=O)Cn1c(-c2ccc(Cl)cc2)nc2cccnc21` displayed a melting point of 123 to 124 °C.

On to `CCC(=O)O[C@@H]1OCC[C@@H]1NC(=O)[C@@H](NS(=O)(=O)c1cccc2ccccc12)[C@@H](C)CC`, for which the melting point lay in the range of 157 to 159 °C.

`CCOC(=O)C=Cc1cc(OC)c(OC)c([N+](=O)[O-])c1` returned a melting point of 87 to 88 °C.

For the compound `c1cc(CCCCCc2nnn[nH]2)n2cncc2c1`, the melting point lay within 149 to 150 °C.

The compound `CCCCCCCCCCN1CC(C(=O)OC)N(S(=O)(=O)c2ccc(-c3ccc(Br)cc3)cc2)CC1=O` (configuration not stated) returned a melting point of 117 to 118 °C.

On to `CCC(=O)NCC1CC1c1cccc2nc(C)cn12` (configuration not stated), for which the melting point lay within 88 to 90 °C.

Turning to `CCCCC1CCCCCc2c1oc(=O)c(C(c1ccccc1)C1CC1)c2O` (configuration not stated), the melting point lay in the range of 78 to 82 °C.

`Cc1nc2cc(NC(=O)c3cc4cc(C(F)(F)F)cnc4n3Cc3ccncc3)ccc2s1` came in with a melting point of 208 to 210 °C.

`COCCOc1ccc(/C=C/C(=O)O)c(OCc2nc(-c3ccccc3)oc2C)c1`: the melting point was 194 to 196 °C.

Regarding `O=C(NCCCCN1C2CCC1CN(c1ccc(Cl)cc1)C2)C(F)(F)F`, the melting point lay within 83 to 85 °C.

The compound `CCOC(=O)NC(C)=N` registered a melting point of 111 to 114 °C.

The compound `CC(C)(C)OC(=O)C(N)Cn1c(=O)c(-c2cccs2)nc2ccccc21` (configuration not stated) showed a melting point of 144 to 145 °C.

`Cc1nc2sccn2c1C1=NNC(=O)NC1` showed a melting point of 293 to 295 °C.

Regarding `O=[N+]([O-])c1ccc(CN2CCCCc3ncccc32)cc1`, the melting point fell in the range of 231 to 233 °C.

`COc1ccc2c(c1)c1c3c(c(-c4ccccc4)cc1n2CCO)C(=O)NC3=O`: the melting point was in the range of 262 to 264 °C.

With `CC(C)(C)OC(=O)C1CCCNN1C(=O)C(CCC(=O)O)N1C(=O)c2ccccc2C1=O` (configuration not stated), the melting point is 132 to 134 °C.

The compound `CCCCCc1nc(-c2ncn3c2COC(=O)c2c(Cl)cccc2-3)no1` showed a melting point of 110 to 112 °C.

Regarding `COc1nc(Cl)nc(Cl)c1C#N`, the melting point came to 117 °C.

With `c1coc(-c2n[nH]c3c2Cc2ccccc2-3)c1`, the melting point fell in the range of 195 to 197 °C.

`Cc1oc(-c2ccccc2)nc1COc1cc(COc2nn(C)cc2CC(=O)O)on1`: the melting point was 149 to 150 °C.

In turn, `COc1ccc(N2CCOCC2)cc1NC(=S)C(=O)Nc1ccc(F)cc1` yielded a melting point of 206 to 208 °C.

`COC1CC(C(=O)O)Cc2onc(-c3ccc(Cl)cc3)c21` (configuration not stated): the melting point fell in the range of 190 to 191 °C.

`Cn1nc(C(F)(F)F)c(CS(=O)C2=NOC(C)(C)C2)c1OC(F)F` (configuration not stated) yielded a melting point of 112 to 114 °C.
